# Test results as given in US10065965B2, “Imidazo[1,2-B][1,2,4]triazine derivatives as antiparasitic agents” (GlaxoSmithKline Intellectual Property Development Limited, priority 2015, dated 2018).
# Legend:
# Trypanosoma cruzi = assay: Assay 6 Trypanosoma cruzi intracellular assay (infected H9C2 cells); format: cell-based; conditions: H9c2, in Rattus norvegicus, 72 h, infected H9C2 rat cardiomyocytes, read-out: pEC50 value against Trypanosoma cruzi (converted)
# In short: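 Infected H9C2 rat cardiomyocytes (T. cruzi trypomastigotes, MOI 1, 18 h) plated at 2500 cells/well on compound, 11-point 1:3 curves from 50 μM top, 72 h at 37 °C in 2% FBS DMEM. Fixed, Draq5-stained, high-content imaged; algorithm counts parasites per cell, % infected cells and total host cells (cytotoxicity).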
# [1] = Assay 6 Trypanosoma cruzi intracellular assay, cytotoxicity against H9c2 cells; format: cell-based; conditions: rat, H9C2 cardiomyocytes infected with T. cruzi trypomastigotes, total number of H9C2 cells, minimum threshold 4.3, read-out: cytotoxicity against H9c2 cells, pEC50 (converted)
# Description: Compounds were dispensed into black 384-well assay plates (Greiner) by acoustic dispensing (LabCyte ECHO). For potency determinations, eleven-point, one in three dilution curves were generated, with a top concentration of 50 μM. H9C2 rat cardiomyocytes cells were dispensed in T225 tissue culture flasks and after 4 hours they were infected during 18 hours with T. cruzi trypomastigotes in the same T225 tissue culture flasks at a multiplicity of infection of 1. Next, any remaining free trypomastigotes were washed away with PBS and the infected H9C2 cells were harvested by trypsinisation. The infected H9C2 cells were then plated into 384-well plates containing the compounds to be tested, at 2500 cells per well in DMEM media with 2% FBS, 1% Penicillin/Streptomocin, 2 mM L-Glutamine, 1 mM Na Pyruvate and 25 mM HEPES. After 72 h incubation at 37° C. in presence of 5% CO2, the plates were fixed and stained with 4% formaldehyde and 2 μM Draq5 for 3 hours at room temperature. The plates were imaged on a Perkin Elmer Opera high-content imaging system using a 20× air objective. Images were analysed using the Acapella building blocks system (Perkin Elmer). The image analysis algorithm first identified the H9C2 nuclei followed by demarcation of the cytoplasm and identification of intracellular amastigotes. This algorithm reported mean number of parasites per H9C2 cell, the percentage of infected H9C2 cells and the total number of H9C2 cells.
# Leishmania donovani = assay: Assay 1 intramacrophage Leishmania donovani assay (potency readout); format: cell-based; conditions: amastigotes in PMA-treated THP-1 macrophages, 96 h, average number of amastigotes per cell, minimum threshold 4.3, read-out: pEC50 value against Leishmania donovani (converted)
# In short: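 THP-1 cells were differentiated with 20 nM PMA for 75 h, infected with amastigotes at MOI 5 for 16 h, then exposed to compound for 96 h in a ten-point 1:3 series from a 50 μM top concentration. Cells were fixed, DAPI/CellMask-stained and imaged by high-content microscopy. pEC50 was derived from amastigotes per cell and from THP-1 count.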
# [2] = Assay 1 intramacrophage Leishmania donovani assay, THP-1 cell count (cytotoxicity readout); format: cell-based; conditions: human, minimum threshold 4.3, read-out: cytotoxicity against THP-1 cells, pEC50 value (converted)
# Description: The intramacrophage Leishmania assay was performed using a modified version of the method described in De Rycker et al. (Antimicrob Agents Chemother. 2013 July; 57(7):2913-22. Comparison of a high-throughput high-content intracellular Leishmania donovani assay with an axenic amastigote assay. De Rycker M, Hallyburton I, Thomas J, Campbell L, Wyllie S, Joshi D, Cameron S, Gilbert I H, Wyatt P G, Frearson J A, Fairlamb A H, Gray D W.). Procedure: 350 nl of compound was pre-dispensed into 384 well sterile intermediary plates. For single point screening, amphotericin B was added to all wells of column 24 as a positive control (final concentration 2 μM) and DMSO to column 23. For potency determinations, ten-point, one in three dilution curves were created with the highest concentration being 50 μM and on each plate a control curve of amphotericin B was included. Controls were as follows: columns 11 and 12: DMSO, columns 23 and 24: amphotericin B (final concentration 2 μM). To the intermediary plates, 35 μl of THP-1 media was added and plates were shaken for >5 min to ensure complete mixing. THP-1 cells (8,000 per well, 50 μl) were plated into black clear-bottom 384 well plates (Corning) in presence of 20 nM PMA. After 20 min at RT, the plates were incubated at 37° C. under 5% CO2 in a humidified incubator for 75 h. The cells were then washed with […] sterile phosphate buffered saline (PBS) supplemented with 1 mM CaCl2, 0.5 mM MgCl2, 0.1% (w/v) bovine serum albumin (PBS-A) and amastigotes were added to all wells at a multiplicity of infection of 5 (40,000 amastigotes per well). After 40 min at RT, plates were returned to the incubator. Amastigotes were incubated in the presence of THP-1 macrophages for 16 h. Any remaining extracellular amastigotes were subsequently removed with an overflow wash of 1 mL PBS-A per well (wash buffer is being aspirated from the top of the well as it is being dispensed) followed by addition of 25 μl of the compound pre-dilutions using a Fluidx Ipette-pro pipetting station. The final dilution of each compound was 200-fold. Plates were incubated for 96 h and then washed (250 μl PBS-A) and fixed (4% (v/v) formaldehyde-PBS, 30 min, RT). After fixation, the wells were washed with 250 μl PBS, stained (10 μg/mL DAPI, 0.4 μg mL-1 HCS Cellmask Deep Red in PBS+0.1% (v/v) Triton X-100, 30 min, RT) and washed with 250 μl PBS. Finally, PBS+0.05% (v/v) thimerosal was added to the wells, the plates were sealed and imaged on a high-content microscope (GE IN Cell 2000) using a 10× objective. Image analysis was carried out with GE IN Cell Analyzer 1000 Workstation using the “Multi Target Analysis” module. Settings for segmentation were as follows: nuclei: minimum area: 142.384 μm2, sensitivity: 81, method: top-hat; cells: characteristic area: 2500 μm2, sensitivity: 60, method: multiscale top-hat; organelles (amastigotes): granule size 1-3, 3 scales, sensitivity: 90, detection in entire cell. For each well, i) THP-1 cell count (cytotoxicity readout) and ii) average number of amastigotes per cell (potency readout) were calculated, both in terms of pEC50 values.
# [3] = Assay 4 solubility assay, ChemiLuminescent Nitrogen Detection (CLND); format: physicochemical; conditions: phosphate buffered saline, pH 7.4, aqueous buffer, kinetic from dmso stock, pH 7.4 PBS, from 10 mM DMSO stock, 1 h at room temperature
# In short: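 Kinetic solubility: 10 mM DMSO stock diluted 5 µl into 100 µl pH 7.4 PBS, incubated 1 h at room temperature, then filtered. Filtrate quantified by HPLC with chemiluminescent nitrogen detection against ondansetron and caffeine standards; solubility in µM by linear-regression calibration.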
# [4] = Assay 5 Leishmania donovani intracellular assay, cytotoxicity against THP-1 cells; format: cell-based; conditions: human, total number of THP-1 cells, minimum threshold 4.3, read-out: cytotoxicity against THP-1 cells, pEC50 value (converted)
# Description: Compounds were dispensed into black 384-well assay plates (Greiner) by acoustic dispensing (LabCyte ECHO). For potency determinations, eleven-point, one in three dilution curves were generated, with a top concentration of 50 μM. THP-1 human monocytes cells were dispensed in T225 tissue culture flasks and differentiated using 30 nM of PMA, after 24 hours they were infected overnight using Leishmania donovani expressing Green Fluorescent Protein (eGFP) amastigotes in the same T225 tissue culture flasks at a multiplicity of infection of 10. Next, any remaining free amastigotes were washed away with PBS and the infected THP-1 cells were harvested by trypsinisation. The infected cells were then plated into 384-well plates containing the compounds to be tested, at 3000 cells per well in RPMI media with 2% FBS and 25 mM Sodium bicarbonate. After 96 h incubation at 37° C. in presence of 5% CO2, the plates were fixed with 4% formaldehyde for 30 minutes, washed with PBS and stained with 0.1 mg/mL of DAPI for 30 minutes and washed again with PBS. The plates were imaged on a Perkin Elmer Opera high-content imaging system using a 20× air objective with two expositions, one for DAPI stain and other for eGFP. Images were analysed using the Acapella building blocks system (Perkin Elmer). The image analysis algorithm first identified the THP-1 nuclei followed by demarcation of the cytoplasm and identification of intracellular amastigotes. This algorithm reported mean number of parasites per THP-1 cell, the percentage of infected THP-1 cells and the total number of THP-1 cells.
EC50 (Leishmania donovani),solubility at 1 h [3],Structure (SMILES),EC50 (Trypanosoma cruzi),EC50 at 72 h [1],EC50 at 96 h [2],EC50 at 96 h [4]
> 50.1 µM,,"O=S(=O)(Nc1ccc(F)c(-c2cn3nc(N4CCOCC4)cnc3n2)c1)C1CCCC1 [Example 33, N-(4-fluoro-3-(2-morpholinoimidazo [1,2-b][1,2,4]triazin-6-yl)phenyl)cyclo-pentanesulfonamide]",10 to 39.8 µM,0.794 to 3.16 µM,,
,10 to 83 µM,"COc1ccc(CNCc2cccc(-c3cnc4nc(-c5cc(NC(=O)N6CCCC6)ccc5F)cn4n3)c2)cc1 [Example 45, N-(4-fluoro-3-(2-(3-(((4-methoxybenzyl)amino)methyl)phenyl)imidazo [1,2-b][1,2,4]triazin-6-yl)phenyl)pyrrolidine-1-carboxamide]",0.00501 to 0.631 µM,0.794 to 3.16 µM,3.98 to 15.8 µM,2.51 to 10 µM
,10 to 83 µM,"CNCc1ccc(-c2cnc3nc(-c4cc(NC(=O)N5CCCC5)ccc4F)cn3n2)cc1 [Example 38, N-(4-fluoro-3-(2-(4-((methylamino)methyl)phenyl)imidazo[1,2-b] [1,2,4]triazin-6-yl)phenyl)pyrrolidine-1-carboxamide]",0.00501 to 0.631 µM,0.794 to 3.16 µM,3.98 to 15.8 µM,2.51 to 10 µM
